Results from BindingDB's records for PubMed 26907156 (n/a, 2016).

biological target: CDK2/Cyclin E; experiment: Inhibition of CDK2/Cyclin E (unknown origin) using histone as substrate incubated for 30 mins in presence of gamma[33P]ATP by digital imaging analysis

| IC50 | Structure (SMILES) |
| --- | --- |
| 20 nM | CC(C)n1cnc2c(NCc3cc(Cl)ccc3O)nc(NCCC(C)(C)O)nc21 |
| 20 nM | CCC(CO)Nc1nc(NCc2cc(C)ccc2O)c2ncn(C(C)C)c2n1 (stereo not drawn) |
| 20 nM | COc1cccc(CNc2nc(NC3CCCCC3N)nc3c2ncn3C(C)C)c1O (stereo not drawn) |
